Source: article PMC11694536 (Alzheimer's & Dementia : Translational Research & Clinical …, 2024)
≈ marks a conversion by molar mass, not a printed value.

What was measured:
[1] = tested on: protein O‐GlcNAc modification in human embryonic kidney cells; assay: Cellular protein O-GlcNAc increase; assay type: cell-based; conditions: read-out: Protein O‐GlcNAc (cellular) Relative EC50
[2] = biological target: human ether‐à‐go‐go (hERG) channel (Homo sapiens, UniProt Q12809); assay: hERG channel inhibition; assay type: biochemical
Chain of human ether‐à‐go‐go (hERG) channel (Q12809 whole entry): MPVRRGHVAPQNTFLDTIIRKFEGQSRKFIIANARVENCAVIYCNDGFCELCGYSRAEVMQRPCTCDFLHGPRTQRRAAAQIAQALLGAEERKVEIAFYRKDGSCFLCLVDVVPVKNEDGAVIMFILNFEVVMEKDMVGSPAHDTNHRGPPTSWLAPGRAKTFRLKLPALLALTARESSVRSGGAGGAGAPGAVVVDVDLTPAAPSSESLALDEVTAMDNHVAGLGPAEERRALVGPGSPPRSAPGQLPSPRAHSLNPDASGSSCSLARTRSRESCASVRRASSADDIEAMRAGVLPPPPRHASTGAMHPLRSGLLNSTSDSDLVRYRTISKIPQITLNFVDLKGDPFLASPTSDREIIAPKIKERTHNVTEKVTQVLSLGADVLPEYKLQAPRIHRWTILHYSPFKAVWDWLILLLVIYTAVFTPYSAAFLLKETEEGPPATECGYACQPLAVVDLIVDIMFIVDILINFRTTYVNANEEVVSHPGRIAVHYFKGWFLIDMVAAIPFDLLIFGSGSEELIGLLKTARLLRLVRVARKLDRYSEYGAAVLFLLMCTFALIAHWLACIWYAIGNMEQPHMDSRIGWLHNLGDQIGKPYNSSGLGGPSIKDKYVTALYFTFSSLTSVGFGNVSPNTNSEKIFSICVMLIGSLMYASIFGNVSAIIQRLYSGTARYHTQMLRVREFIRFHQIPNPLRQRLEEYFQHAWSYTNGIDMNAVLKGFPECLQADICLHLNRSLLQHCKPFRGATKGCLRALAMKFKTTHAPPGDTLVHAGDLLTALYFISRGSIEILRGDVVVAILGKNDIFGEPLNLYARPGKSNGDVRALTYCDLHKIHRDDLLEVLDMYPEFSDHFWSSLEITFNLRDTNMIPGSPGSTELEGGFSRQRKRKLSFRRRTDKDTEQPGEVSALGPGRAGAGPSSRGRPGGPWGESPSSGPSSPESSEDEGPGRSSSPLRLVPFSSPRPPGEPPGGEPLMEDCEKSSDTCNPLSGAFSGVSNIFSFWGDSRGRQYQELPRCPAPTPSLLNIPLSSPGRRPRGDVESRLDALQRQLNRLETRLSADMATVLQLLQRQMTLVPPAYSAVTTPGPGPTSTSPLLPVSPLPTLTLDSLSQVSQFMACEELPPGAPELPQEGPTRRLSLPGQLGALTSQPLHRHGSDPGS

Solubility = assay type: physicochemical; conditions: phosphate buffer, pH 7.5, aqueous buffer
[3] = MDCK passive permeability; assay type: in vitro ADME, canine; conditions: dog
[4] = Plasma protein binding, mice; assay type: in vitro ADME; conditions: mouse
[5] = Phase 1 clinical safety and tolerability; assay type: in vivo, human
[6] = Clinical pharmacokinetics in Phase 1 studies; assay type: in vivo, human
[7] = Phase 2 study PROSPECT-ALZ in early symptomatic AD; assay type: in vivo, human; conditions: Prospect‐ALZ Phase 2 study; full results to be published separately
Predicted human PK = conditions: allometry from rat, dog, monkey PK
[8] = SAD study, single oral doses 0.15 to 16 mg

solubility (Solubility): 1360 µg/mL (≈ 3.55 mM)
Papp [3]: 50.1 ×10⁻⁶ cm/s
fraction unbound [4]: 0.684
accumulation with QD dosing ([6]; MAD study, 1, 3, 7 mg QD for 14 days, day 1 vs day 14): minimal accumulation
CL/F [6, 8]: 12 L/h
V/F [6, 8]: 112 L
predicted human apparent clearance (CL/F) (Predicted human PK): 12 L/h
predicted human apparent volume of distribution (V/F) (Predicted human PK): 48 L
SMILES: CC(=O)Nc1nc(F)c(CN2CC[C@H](OCc3noc(C)n3)C[C@@H]2C)s1 [ceperognastat]
EC50 [1]: 0.0219 ± 0.0073 µM
IC50 [2]: 81 µM
participants reporting at least one TEAE ([5]; MD‐PET study, 1 mg QD 14 days): Four out of four
participants reporting TEAEs ([5]; SAD study, 13 of 23 ceperognastat-treated participants): 56.5%
participants reporting at least one TEAE ([5]; SD‐PET study, 8 of 16 participants, single oral dose): 50%
serious adverse events (SAEs) ([5]; all Phase 1 clinical studies): no serious adverse events
clinical benefit in early AD [7]: did not show evidence of clinical benefit
